The text below walks through data of patent publication US20120321584A1, “PROCESSES FOR PREPARING AMINE SALTS OF KMUP-3 AND USE THEREOF” (KAOHSIUNG MEDICAL UNIVERSITY, priority 2011, published 2012).

Structures are written as SMILES.

The test system of the assay is electrically-stimulated left atria. The assay is described as follows: Electrically-stimulated beating left atrium, organ bath. Format: cell-based, guinea-pig. The procedure:
Organ bath experiments and tissue procurement. Guinea-pigs were killed by a blow on the head. Their hearts were quickly excised and trimmed of excess tissues. The atrium was carefully removed and placed at room temperature (20˜25° C.) in a Krebs solution of the following composition (mM): NaCl 113, KCl 4.8, CaCl2 2.2, KH2PO4 1.2, MgCl2 1.2, NaHCO3 25, dextrose 11.0; bubbled with a 95% O2+5% CO2 mixture, followed by separation of right and left atrium for subsequent experiments.
Quiescent left atria free of connective tissues were dissected and mounted in an organ bath under a resting tension of 0.5 g. Organs were bathed at 32.5° C. in aerated Krebs solution and electrically stimulated with 1 Hz at […] via two platinum electrodes placed at either side. The positive inotropic effect was measured by determining the cumulative concentration-response curves in the presence of KMUP-3 or KMUP-3 amine salt (0.1, 1.0, 10, 100 μM). To examine the possible involvement of NO and cAMP/cGMP in the action of KMUP-3 or KMUP-3 amine salt on electrically-stimulated beating atria, pre-incubated with a ROCK inhibitor Y27632 (1.0 μM), a β-adrenoceptor blocker propranolol (1.0 μM), eNOS inhibitors L-NAME (100 μM), 7-nitroindazole (100 μM) and 5-HT inhibitor ketanserin (1.0 μM) was performed for 15 min prior to the addition of KMUP-3 or KMUP-3 amine salt to measure the development of beating force and heart rate for 10 min.

Consider `Cn1c(=O)c2c(ncn2CCN2CCN(c3ccc([N+](=O)[O-])cc3)CC2)n(C)c1=O` [KMUP-3, 7-[2-[4-(4-nitrobenzene)piperazinyl]ethyl]-1,3-dimethylxanthine], for which, for the setting “KMUP-3 10 μM”, the Left atria contractility result was “increased”. In addition, the “Potency for increasing contractility compared with milrinone” value (electrical stimulation 1 Hz, P<0.05) is reported as “more potent than milrinone”.
